Experimental data: patent US12649750B2, “Macrocyclic compounds, compositions, and methods of using thereof” (Sionna Therapeutics Inc., priority 2022, dated 2026)

Columns and labels:
NBD1 = target: T1, NBD1 (Homo sapiens, UniProt P13569); experiment: Aggregation analysis using differential static light scattering (DSLS), thermal stability of NBD1 (ΔTagg); format: binding; details: ΔTagg versus DMSO control, NBD1 0.2 mg/ml
T1 construct: Purified recombinant NBD1 was produced using previously described methods; made in house
Method in brief: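 Stabilisation is measured as the shift in aggregation onset of recombinant NBD1 (0.2 mg/ml, 2 mM ATP, 5 mM MgCl2, pH7.6) exposed to compound. Images are taken every 0.5° C. while heating at 1° C. per minute, and the inflection-point Tagg is corrected by the DMSO mean.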

CFTR = target: T2, CFTR (Homo sapiens, UniProt P13569, DEL508-508); experiment: TECC24 AUC fold over DMSO @10 μM, CFTR-mediated transepithelial chloride transport in CF-HBE cells; format: cell-based; details: test agent AUC divided by DMSO vehicle AUC, primary CF-HBE cells, ΔF508 homozygous donor, 48 hours incubation
T2 construct: Primary human bronchial epithelial cells from a ΔF508 homozygous CF donor; host or cells: primary human bronchial epithelial cells (CF-HBE), ΔF508 homozygous donor
Method in brief: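 Value is ratio of test-agent to DMSO AUC of equivalent transepithelial Cl− current, integrated from forskolin (10 μM) stimulation to CFTR inhibitor-172 (20 μM) block, with benzamil 10 μM present. CF-HBE (ΔF508/ΔF508) cultures had 48 h compound exposure at 10 μM, 36.5° C before recording.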

T2 sequence (P13569 with tags, fused parts or gaps DEL508-508): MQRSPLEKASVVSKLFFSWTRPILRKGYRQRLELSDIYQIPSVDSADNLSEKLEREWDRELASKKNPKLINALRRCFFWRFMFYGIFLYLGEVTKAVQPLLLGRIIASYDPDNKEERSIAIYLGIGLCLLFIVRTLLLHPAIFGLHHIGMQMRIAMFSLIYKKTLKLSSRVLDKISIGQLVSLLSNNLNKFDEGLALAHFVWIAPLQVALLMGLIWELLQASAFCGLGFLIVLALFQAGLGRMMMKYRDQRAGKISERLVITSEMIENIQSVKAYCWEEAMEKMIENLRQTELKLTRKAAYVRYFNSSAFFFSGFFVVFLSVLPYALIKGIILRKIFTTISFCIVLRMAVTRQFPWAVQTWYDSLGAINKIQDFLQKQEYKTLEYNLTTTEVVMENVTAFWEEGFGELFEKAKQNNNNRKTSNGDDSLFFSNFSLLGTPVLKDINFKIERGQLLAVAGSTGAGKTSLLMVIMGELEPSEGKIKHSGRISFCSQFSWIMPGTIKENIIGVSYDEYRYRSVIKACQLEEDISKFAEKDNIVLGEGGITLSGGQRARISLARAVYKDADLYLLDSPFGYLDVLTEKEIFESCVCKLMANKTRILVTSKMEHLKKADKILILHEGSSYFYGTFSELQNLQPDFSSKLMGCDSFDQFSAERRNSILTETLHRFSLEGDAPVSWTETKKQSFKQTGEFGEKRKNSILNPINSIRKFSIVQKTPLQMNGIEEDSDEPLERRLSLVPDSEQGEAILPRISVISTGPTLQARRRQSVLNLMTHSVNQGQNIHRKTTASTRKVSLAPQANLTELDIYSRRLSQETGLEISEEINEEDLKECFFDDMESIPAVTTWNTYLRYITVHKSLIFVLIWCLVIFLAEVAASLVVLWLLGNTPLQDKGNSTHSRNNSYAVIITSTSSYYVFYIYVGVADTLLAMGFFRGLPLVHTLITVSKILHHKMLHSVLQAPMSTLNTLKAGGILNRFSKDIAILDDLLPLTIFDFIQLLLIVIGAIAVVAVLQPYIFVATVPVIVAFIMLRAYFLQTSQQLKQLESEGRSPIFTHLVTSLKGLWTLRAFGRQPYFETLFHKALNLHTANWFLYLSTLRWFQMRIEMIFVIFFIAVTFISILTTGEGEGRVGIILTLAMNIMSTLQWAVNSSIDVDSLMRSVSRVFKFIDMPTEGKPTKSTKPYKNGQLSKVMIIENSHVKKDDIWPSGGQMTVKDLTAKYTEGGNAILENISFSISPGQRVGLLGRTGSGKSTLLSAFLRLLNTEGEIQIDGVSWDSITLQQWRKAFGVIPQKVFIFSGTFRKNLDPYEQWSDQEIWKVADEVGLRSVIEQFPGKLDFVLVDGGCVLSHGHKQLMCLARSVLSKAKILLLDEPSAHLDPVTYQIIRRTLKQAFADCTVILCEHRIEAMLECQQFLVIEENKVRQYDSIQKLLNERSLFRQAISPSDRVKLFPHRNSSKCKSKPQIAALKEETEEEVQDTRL
T1 sequence (P13569 423-646 limits assumed): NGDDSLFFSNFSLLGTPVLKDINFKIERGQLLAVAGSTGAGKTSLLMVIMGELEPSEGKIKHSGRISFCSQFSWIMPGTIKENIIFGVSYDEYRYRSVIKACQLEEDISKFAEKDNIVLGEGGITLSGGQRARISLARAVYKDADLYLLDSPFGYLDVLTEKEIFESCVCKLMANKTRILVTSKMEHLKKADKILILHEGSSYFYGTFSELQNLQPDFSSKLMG

Row | Structure (SMILES) | DSLS 3D (100 μM ΔT) (NBD1) | TECC (AUC, 10 μM) (CFTR)
1 | C[C@@H](Cc1cccc([C@@]2(C)CCCC(C)(C)CS(=O)(=O)CCc3c(c(F)cc4[nH]ccc34)Sc3ccc(F)c(c3)-c3nc2nn3C)c1)C(=O)O [Compound 242, (2S)-3-[3-[(6R)-22,28-difluoro-3,6,10,10-tetramethyl-12,12-dioxo-12λ6,24-dithia-3,4,19,30-tetrazapentacyclo[23.3.1.12,5.015,23.016,20]triaconta-1(29),2(30),4,15,17,20,22,25,27-nonaen-6-yl]phenyl]-2-methyl-propanoic Acid] | C (a value greater than 10 °C and less than or equal to 25 °C is marked “C”) | C (a value between 20 and 80 is marked “C”)
2 | C[C@@H](Cc1cccc([C@@]2(C)CCCC(C)(C)CS(=O)(=O)CCc3c(c(F)cc4[nH]ccc34)Oc3cncc(c3)-c3nc2nn3C)c1)C(=O)O [Compound 244, (2S)-3-[3-[(6R)-22-fluoro-3,6,10,10-tetramethyl-12,12-dioxo-24-oxa-12λ6-thia-3,4,19,27,30-pentazapentacyclo[23.3.1.12,5.015,23.016,20]triaconta-1(29),2(30),4,15(23),16(20),17,21,25,27-nonaen-6-yl]phenyl]-2-methyl-propanoic Acid] | C (a value greater than 10 °C and less than or equal to 25 °C is marked “C”) | C (a value between 20 and 80 is marked “C”)
3 | C[C@@H](Cc1cccc([C@@]2(C)CCCC(C)(C)CS(=O)(=O)CCc3c(c(F)c(F)c4[nH]ccc34)Oc3ccc(F)c(c3)-c3nc2nn3C)c1)C(=O)O [Compound 245, (2S)-2-methyl-3-[3-[(6R)-21,22,28-trifluoro-3,6,10,10-tetramethyl-12,12-dioxo-24-oxa-12λ6-thia-3,4,19,30-tetrazapentacyclo[23.3.1.12,5.015,23.016,20]triaconta-1(29),2(30),4,15,17,20,22,25,27-nonaen-6-yl]phenyl]propanoic Acid] | C (a value greater than 10 °C and less than or equal to 25 °C is marked “C”) | C (a value between 20 and 80 is marked “C”)
4 | Cn1nc2nc1-c1cc(ccn1)C(=O)c1c(F)cc3[nH]ccc3c1CCS(=O)(=O)CC(C)(C)CCC[C@]2(C)c1cccc(CC(=O)O)c1 [Compound 247, 2-[3-[(6R)-22-fluoro-3,6,10,10-tetramethyl-12,12,24-trioxo-12λ6-thia-3,4,19,28,30-pentazapentacyclo[23.3.1.12,5.015,23.016,20]triaconta-1(29),2(30),4,15,17,20,22,25,27-nonaen-6-yl]phenyl]acetic Acid] | C (a value greater than 10 °C and less than or equal to 25 °C is marked “C”) | C (a value between 20 and 80 is marked “C”)
5 | Cn1nc2nc1-c1cc(ccn1)Sc1c(F)cc3[nH]ccc3c1CCS(=O)(=O)CC(C)(C)CCC[C@]2(C)c1cccc(CC(=O)O)c1 [Compound 251, 2-[3-[(6R)-22-Fluoro-3,6,10,10-tetramethyl-12,12-dioxo-12λ6,24-dithia-3,4,19,28,30-pentazapentacyclo[23.3.1.12,5.015,23.016,20]triaconta-1(29),2(30),4,15,17,20,22,25,27-nonaen-6-yl]phenyl]acetic Acid] | C (a value greater than 10 °C and less than or equal to 25 °C is marked “C”) | B (a value between 12-20 is marked “B”)
6 | Cn1nc2nc1-c1cncc(c1)Oc1c(F)cc3[nH]ccc3c1CCS(=O)(=O)CC(C)(C)CCC[C@]2(C)c1cccc(CCC(=O)O)c1 [Compound 252, 3-[3-[(6R)-22-Fluoro-3,6,10,10-tetramethyl-12,12-dioxo-24-oxa-12λ6-thia-3,4,19,27,30-pentazapentacyclo[23.3.1.12,5.015,23.016,20]triaconta-1(29),2(30),4,15(23),16(20),17,21,25,27-nonaen-6-yl]phenyl]propanoic Acid] | C (a value greater than 10 °C and less than or equal to 25 °C is marked “C”) | C (a value between 20 and 80 is marked “C”)
7 | C[C@@H](Cc1cccc([C@@]2(C)CCCC(C)(C)CS(=O)(=O)CCc3c(c(F)cc4[nH]ccc34)Sc3ccnc(c3)-c3nc2nn3C)c1)C(=O)O [Compound 253, (2S)-3-[3-[(6R)-22-fluoro-3,6,10,10-tetramethyl-12,12-dioxo-12λ6,24-dithia-3,4,19,28,30-pentazapentacyclo[23.3.1.12,5.015,23.016,20]triaconta-1(29),2(30),4,15,17,20,22,25,27-nonaen-6-yl]phenyl]-2-methyl-propanoic Acid] | C (a value greater than 10 °C and less than or equal to 25 °C is marked “C”) | B (a value between 12-20 is marked “B”)
8 | C[C@@H](Cc1cccc([C@@]2(C)CCCC(C)(C)CS(=O)(=O)CCc3c(c(F)cc4[nH]ccc34)Oc3cnnc(c3)-c3nc2nn3C)c1)C(=O)O [Compound 256, (2S)-3-[3-[(6R)-22-Fluoro-3,6,10,10-tetramethyl-12,12-dioxo-24-oxa-12λ6-thia-3,4,19,27,28,30-hexazapentacyclo[23.3.1.12,5.015,23.016,20]triaconta-1(29),2(30),4,15,17,20,22,25,27-nonaen-6-yl]phenyl]-2-methyl-propanoic Acid] | C (a value greater than 10 °C and less than or equal to 25 °C is marked “C”) | C (a value between 20 and 80 is marked “C”)
9 | Cn1nc2nc1-c1cc(ccn1)Oc1c(F)c(F)c3[nH]ccc3c1CCS(=O)(=O)CC(C)(C)CCC[C@]2(C)c1cccc(CC(=O)O)c1 [Compound 257, 2-[3-[(6R)-21,22-difluoro-3,6,10,10-tetramethyl-12,12-dioxo-24-oxa-12λ6-thia-3,4,19,28,30-pentazapentacyclo[23.3.1.12,5.015,23.016,20]triaconta-1(29),2(30),4,15,17,20,22,25,27-nonaen-6-yl]phenyl]acetic Acid] | C (a value greater than 10 °C and less than or equal to 25 °C is marked “C”) | B (a value between 12-20 is marked “B”)
10 | Cn1nc2nc1-c1cc(ccn1)Oc1c(F)c(F)c3[nH]ccc3c1CCS(=O)(=O)CC(C)(C)CCC[C@]2(C)c1cccc(CCO)c1 [Compound 258, 2-[3-[(6R)-21,22-Difluoro-3,6,10,10-tetramethyl-12,12-dioxo-24-oxa-12λ6-thia-3,4,19,28,30-pentazapentacyclo[23.3.1.12,5.015,23.016,20]triaconta-1(29),2(30),4,15,17,20,22,25,27-nonaen-6-yl]phenyl]ethanol] | C (a value greater than 10 °C and less than or equal to 25 °C is marked “C”) | C (a value between 20 and 80 is marked “C”)
11 | C[C@@H](Cc1cccc([C@@]2(C)CCCC(C)(C)CS(=O)(=O)CCc3c(c(F)c(F)c4[nH]ccc34)Oc3ccnc(c3)-c3nc2nn3C)c1)C(=O)O [Compound 262, (2S)-3-[3-[(6R)-21,22-Difluoro-3,6,10,10-tetramethyl-12,12-dioxo-24-oxa-12λ6-thia-3,4,19,28,30-pentazapentacyclo[23.3.1.12,5.015,23.016,20]triaconta-1(29),2(30),4,15,17,20,22,25,27-nonaen-6-yl]phenyl]-2-methyl-propanoic Acid] | C (a value greater than 10 °C and less than or equal to 25 °C is marked “C”) | C (a value between 20 and 80 is marked “C”)
12 | C[C@@H](O)Cc1cccc([C@@]2(C)CCCC(C)(C)CS(=O)(=O)CCc3c(c(F)cc4[nH]ccc34)Sc3ccc(F)c(c3)-c3nc2nn3C)c1 [Compound 263, (2R)-1-[3-[(6R)-22,28-difluoro-3,6,10,10-tetramethyl-12,12-dioxo-12λ6,24-dithia-3,4,19,30-tetrazapentacyclo[23.3.1.12,5.015,23.016,20]triaconta-1(29),2(30),4,15,17,20,22,25,27-nonaen-6-yl]phenyl]propan-2-ol] | B (a value above 5 °C and less than or equal to 10 °C is marked “B”) | C (a value between 20 and 80 is marked “C”)
13 | COC(=O)[C@H](C)Cc1cccc([C@@]2(C)CCCC(C)(C)CS(=O)(=O)CCc3c(c(F)cc4[nH]ccc34)Oc3cnnc(c3)-c3nc2nn3C)c1 [Compound 265, Methyl (2R)-3-[3-[(6R)-22-fluoro-3,6,10,10-tetramethyl-12,12-dioxo-24-oxa-12λ6-thia-3,4,19,27,28,30-hexazapentacyclo[23.3.1.12,5.015,23.016,20]triaconta-1(29),2(30),4,15,17,20,22,25,27-nonaen-6-yl]phenyl]-2-methyl-propanoate] | B (a value above 5 °C and less than or equal to 10 °C is marked “B”) | C (a value between 20 and 80 is marked “C”)
14 | C[C@@H](Cc1cccc([C@@]2(C)CCCC(C)(C)CS(=O)(=O)CCc3c(c(F)c(F)c4[nH]ccc34)[S+]([O-])c3ccnc(c3)-c3nc2nn3C)c1)C(=O)O (stereo partly drawn) [Compound 267, (2S)-3-[3-[(6R)-21,22-Difluoro-3,6,10,10-tetramethyl-12,12,24-trioxo-12λ6,24λ4-dithia-3,4,19,28,30-pentazapentacyclo[23.3.1.12,5.015,23.016,20]triaconta-1(29),2(30),4,15,17,20,22,25,27-nonaen-6-yl]phenyl]-2-methyl-propanoic Acid] | C (a value greater than 10 °C and less than or equal to 25 °C is marked “C”) | C (a value between 20 and 80 is marked “C”)
